Data published in patent US11402367B2, “Integrated multi-electrode array and trans-endothelial electrical resistance in organ-on-a-chip microsystems” (President and Fellows of Harvard College, priority 2017, dated 2022).

Assays:
[1] = system: endothelial layer (HUVECs); test: TEER and capacitance measurement of the endothelial layer in the MEA-TEER Heart-on-Chip; type: cell-based, human; details: for effect on TEER values / endothelial barrier: TNF-α 2 μg/mL overnight, isoproterenol 50 nM, 30 minutes, FIG. 5A, 5B
Experimental: The MEA-TEER chips are surface-treated with an oxygen plasma (Atto, Diener electronic GmbH, Germany at O2, 15 standard cubic centimeters per minute (“sccm”), 100 Watts, 30 seconds) to create hydrophilic, sterile, flow systems. Both apical and basal channels 116, 117, 216, 217 are coated overnight with human fibronectin (Sigma at 100 micrograms (“μg”/mL in PBS with Mg^2+ and Ca^2+ at 4° C.). HUVECs were seeded at 2*10^6 cell per mL in the apical microchannel, and, then, left static overnight.
(§1) Cardiomyocytes are seeded at 2*10^6 cell per mL in the basal microchannel, followed by 3 hours to overnight inculcation, before connecting both channels 116, 117, 216, 217 to flow at 60 microliters (“μL”)/hr. Flow is controlled by a peristaltic pump (Ismatech) and connections re in Pharmed tubing (Cole-Parmer) having a 0.511 inner diameter. […] To challenge the endothelial barrier TNF (Sigma) is added at 2 μg/mL in the bottom microchannel 117, 217 during overnight flow. Isoproterenol (Sigma) 50 nanomolar (“nM”) is added to the endothelial microchannel for 30 minutes followed by MEA measurement.
TEER measurements are carried out by applying a 10 microamperes (“μA”) sinusoidal excitation signal in a four-electrode set-up in the frequency range 100 KHz-10 hertz (“Hz”). AC measurements are preferable for TEER measurements to avoid charging effects over the cell membranes and the electrodes. The four-electrode set-up, utilizing one opposing pair of electrodes for current excitation and another opposing pair of electrodes for voltage sensing, provides benefits of eliminating contact resistance associated with two electrode measurements.
TEER and capacitance values are derived using the equivalent circuit and model depicted in FIGS. 3A, 6A, and 6B. A resistor Rsol describes the solution conductivity, while the electric response of the endothelial layer is modeled using a resistor (RTEER) and a constant phase element (CPEt) in parallel to extract TEER of the cell-cell junctions, as well as the contribution of cell membrane capacitance and, indirectly, the overall monolayer surface area.

hamster cardiomyocytes = details: TNF-α at 200 nanograms/ml^3; cited from earlier work
[2] = system: human induced pluripotent stem cell-derived cardiomyocytes (hiPSC-CMs, Cor.4U); test: MEA measurement of cardiac field potentials in the MEA-TEER Heart-on-Chip; type: cell-based; details: isoproterenol 50 nM; basal beat rate 60 beats per minute; FIG. 5C
From the text: HUVECs (Lonza) were expanded in EGM media (Lonza) and used at passages 2-6 in the chip experiments. Human induced pluripotent stem cell-derived cardiomyocytes hiPSC-CMs, Cor.4U, Axiogenesis) were handled according to the vendor's instructions and used a passage 1 after thawing. Briefly, cryopreserved cells were thawed on fibronectin-coated cell culture vessels in the presence of 5 […] puromycin to select for MYH6-positive cells. Three hours after thawing, the puromycin containing media was gently refreshed to wash out remaining cryopreservant (DMSO). Twenty-four hours after seeding, cell culture media was refreshed without puromycin. The following day, the cardiomyocytes were replated into the chips using 0.5% trypsin. […]
Spontaneous cardiac field potentials (“FPs”) are recorded from cardiomyocytes using Platinum and Platinum Black MEAs with the commercial Multi-Channel-System USB-MEA60-Inv-BC-System, Multi-Channel-Systems (MCS) GmbH. […] Cardiac FPs are recorded for 120 seconds for each measurement using Cardio2D software and are analyzed with Cardio2D+ (both from Multi Channel Systems). Measured parameters, including FP duration (FPD, milliseconds), peak-to-peak interval (PPI, seconds), beating rate (beats per minute), and conduction velocity (CV, centimer s_1) are exported into Microsoft Excel files for further analysis. […]

[3] = system: endothelial layer (HUVECs); type: cell-based, human; details: adherens junction staining; FIGS. 4A-4C, 9A-9B, 10A-10C
Experimental: Cardiomyocytes are seeded at 2*10^6 cell per mL in the basal microchannel, followed by 3 hours to overnight inculcation, before connecting both channels 116, 117, 216, 217 to flow at 60 microliters (“μL”)/hr. Flow is controlled by a peristaltic pump ([…]) and connections re in […] tubing (Cole-Parmer) having a 0.511 inner diameter. […] To challenge the endothelial barrier TNF (Sigma) is added at 2 μg/mL in the bottom microchannel 117, 217 during overnight flow. Isoproterenol (Sigma) 50 nanomolar (“nM”) is added to the endothelial microchannel for 30 minutes followed by MEA measurement. Chips are rinsed in phosphate-buffered saline and fixated in 4% paraformaldehyde (Sigma) for 15 minutes at room temperature. ICC is carried out after permeabilization in phosphate-buffered saline with 0.05-0.1% Triton X-100 (Sigma) and blocking for 30 minutes in 3-5% Bovine Serum Albumin (Jackson ImmunoResearch, West Grove, Pa.) or 10% goat serum in phosphate-buffered saline with 0.05-0.1% Triton-X 100. Primary antibodies are applied in 2% goat serum or 0.5% BSA over-night at 4° C. or at RT The following primary antibodies are used for ICC experiments: mouse anti-vascular endothelial (VE)-cadherin (Abcam, 1:100), alpha-actinin (Abcam, 1:200) Cells are washed three times in phosphate-buffered saline with 0.05-0.1% Triton-X 100, followed by staining with secondary antibody staining for 30-60 min at RT. […]

[4] = system: myocardial tissue (cardiomyocytes); test: Immunohistochemistry of myocardial tissue on the MEA platform (alpha-actinin); type: cell-based, human; details: isoproterenol treatment; FIGS. 4D-4E
Experimental: as §1
Chips are rinsed in phosphate-buffered saline and fixated in 4% paraformaldehyde (Sigma) for 15 minutes at room temperature. ICC is carried out after permeabilization in phosphate-buffered saline with 0.05-0.1% Triton X-100 (Sigma) and blocking for 30 minutes in 3-5% Bovine Serum Albumin (Jackson ImmunoResearch, West Grove, Pa.) or 10% goat serum in phosphate-buffered saline with 0.05-0.1% Triton-X 100. Primary antibodies are applied in 2% goat serum or 0.5% BSA over-night at 4° C. or at RT […]

[5] = 100 nM isoproterenol; mono-channel fluidic system; cited from earlier work

Compound	effect on TEER values / endothelial barrier [1]	capacitance after the TNF-α challenge ([1]; TNF-α 2 μg/mL, from 194±33 nF after stabilization at day 2)	effect on TEER capacitance ([1]; TNF-α addition, FIG. 5B)	TEER values after TNF-α challenge ([1]; after 24 hours TNF-α 2 μg/mL, dropping from 230±45 Ω before challenge, p<0.01)	contractility of hamster cardiomyocytes (hamster cardiomyocytes)	increase in beat rate [2]	integrity of the endothelial barrier by ICC [3]	changes of cardiomyocytes by IHC versus control [4]	change of beat rate [5]
TNF-α	TEER values decrease to the same values as ECM-coated chips without cells chip	2968±52 nF	increasing the capacitance significantly	15±13 Ω	reduce contractility				
CC(C)NCC(O)c1ccc(O)c(O)c1 (stereo not shown) [isoproterenol]	does not affect the endothelial barrier					60%	does not show any change in integrity of a barrier	do not show major changes	60%
